Source: patent publication US20020065227A1, “Charged compounds comprising a nucleic acid binding moiety and uses therefor” (priority 2000, published 2002)
In brackets after ≈: the same amount, converted by molar mass. Several values for one entry are separate records, joined by “and”; a condition that tells them apart may be missing. Identical values can stand only once. Like-named read-outs stand apart in the source and are kept apart here.

How the values were obtained:
[1] = test system: Staphylococcus aureus (29213); experiment: MIC, NCCLS broth microdilution; assay type: cell-based
[2] = test system: Staphylococcus aureus (33591) (methicillin resistant); experiment: MIC, NCCLS broth microdilution; assay type: cell-based; details: Staphylococcus aureus (33591), methicillin resistant (MRSA)
[3] = test system: Staphylococcus epidermidis (12228); experiment: MIC, NCCLS broth microdilution; assay type: cell-based; details: Staphylococcus epidermidis (12228)
[4] = test system: Enterococcus faecalis (29212); experiment: MIC, NCCLS broth microdilution; assay type: cell-based; details: Enterococcus faecalis (29212)
[5] = test system: Enterococcus faecium (51559) (vacomycin resistant); experiment: MIC, NCCLS broth microdilution; assay type: cell-based; details: Enterococcus faecium (51559), vancomycin resistant
[6] = test system: Streptococcus pneumoniae (49619); experiment: MIC, NCCLS broth microdilution; assay type: cell-based; details: Streptococcus pneumoniae (49619)
[7] = test system: Streptococcus pyogenes (49339); experiment: MIC, NCCLS broth microdilution; assay type: cell-based; details: Streptococcus pyogenes (49339), Table Ia: Streptococcus Group A(49339)
[8] = test system: Listeria monocytogenes (19115); experiment: MIC, NCCLS broth microdilution; assay type: cell-based; details: read-out: MIC
[9] = test system: Bacillus subtilis (6633); experiment: MIC, NCCLS broth microdilution; assay type: cell-based
[10] = test system: Bacillus cereus (11778); experiment: MIC, NCCLS broth microdilution; assay type: cell-based
[11] = test system: Micrococcus luteus (381); experiment: MIC, NCCLS broth microdilution; assay type: cell-based
[12] = test system: Corynebacterium Group A (49676); experiment: MIC, NCCLS broth microdilution; assay type: cell-based
[13] = test system: Propionibacterium acnes (33179); experiment: MIC, NCCLS broth microdilution; assay type: cell-based; details: anaerobe
[14] = test system: Clostridium perfringens (13124); experiment: microbe, parasite or virus in culture; assay type: cell-based
[15] = test system: Peptostreptococcus asaccharolytics (29743); experiment: MIC, NCCLS broth microdilution; assay type: cell-based; details: anaerobe
[16] = test system: Haemophilus influenzae (49247); experiment: MIC, NCCLS broth microdilution; assay type: cell-based; details: Haemophilus influenzae (49247); read-out: MIC
[17] = test system: Esherichia coli (25922); experiment: MIC, NCCLS broth microdilution; assay type: cell-based, Escherichia coli; details: Escherichia coli (25922)
[18] = test system: Pseudomona aeruginosa (27853); experiment: MIC, NCCLS broth microdilution; assay type: cell-based
[19] = test system: AGTACT; experiment: DNase I footprint titration, AGTACT site; assay type: binding; details: equilibrium association constant Ka; pH 7.0, 22° C.
[20] = test system: ACTACT; experiment: DNase I footprint titration, ACTACT site; assay type: binding; details: equilibrium association constant Ka; pH 7.0, 22° C.
[21] = test system: ATTACT; experiment: DNase I footprint titration, ATTACT site; assay type: binding; details: equilibrium association constant Ka; pH 7.0, 22° C.
[22] = test system: AATACT; experiment: DNase I footprint titration, AATACT site; assay type: binding; details: equilibrium association constant Ka; pH 7.0, 22° C.
[23] = test system: Streptococcus pneumoniae (51422) (multiple drug resistant); experiment: MIC, NCCLS broth microdilution; assay type: cell-based
[24] = test system: Candida albicans (90028); experiment: MIC, antifungal assay; assay type: cell-based
[25] = test system: Candida albicans (38247) (Polyene resistant); experiment: MIC, antifungal assay; assay type: cell-based

In the case of `CC1COc2c(N3CCN(C)CC3)c(F)cc3c(=O)c(C(=O)O)cn1c23` (stereo not drawn) [Ofloxacin, ofloxacin, reference compound], the MIC ([1]; Staphylococcus aureus) is reported as 0.125 µg/mL (≈ 0.346 µM), the MIC ([2]; read-out: MIC) is reported as 0.25 µg/mL (≈ 0.692 µM) and the MIC ([3]; read-out: MIC) is reported as 0.25 µg/mL (≈ 0.692 µM). The MIC ([4]; read-out: MIC) was 8 µg/mL (≈ 22.1 µM), the MIC ([5]; read-out: MIC) was 8 µg/mL (≈ 22.1 µM) and the MIC ([6]; read-out: MIC) was 1 to 2 µg/mL (≈ 2.77 to 5.53 µM). It also gave an MIC ([7]; read-out: MIC) of 1 µg/mL (≈ 2.77 µM), an MIC [8] of 1 µg/mL (≈ 2.77 µM) and an MIC ([9]; Bacillus subtilis) of 0.125 µg/mL (≈ 0.346 µM). It also gave an MIC ([10]; Bacillus cereus) of 0.125 µg/mL (≈ 0.346 µM), an MIC ([11]; read-out: MIC) of 1 µg/mL (≈ 2.77 µM) and an MIC ([12]; Corynebacterium) of 0.125 µg/mL (≈ 0.346 µM). The MIC ([13]; Cutibacterium acnes, read-out: MIC) was 0.25 µg/mL (≈ 0.692 µM), the MIC ([14]; Clostridium perfringens) was 0.25 µg/mL (≈ 0.692 µM) and the MIC ([15]; read-out: MIC) was 0.5 µg/mL (≈ 1.38 µM). The MIC [16] was 0.25 µg/mL (≈ 0.692 µM), the MIC ([17]; read-out: MIC) was 0.03 µg/mL (≈ 0.083 µM) and the MIC [18] was over 128 µg/mL.
In the case of `Cn1cc(NC(=O)c2cc(NC(=O)c3nsc(NCCN4CCOCC4)c3Cl)cn2C)cc1C(N)=O` [V-bb], the MIC ([10]; Bacillus cereus, strain not stated) is reported as 8 µg/mL (≈ 15 µM).
For `CN(C)CCCNC(=O)c1cc(NC(=O)c2cc(NC(=O)c3cc(NC(=O)c4nsc(NCCN)c4Cl)cn3C)cn2C)cn1C` [V-c], the “Binding Constant, sequence AGTACT” value [19] was 5e+09 M⁻¹, the “Binding Constant, sequence ACTACT” value [20] was 2e+08 M⁻¹ and the “Binding Constant, sequence ATTACT” value [21] was 2e+08 M⁻¹. The “Binding Constant, sequence AATACT” value [22] was 2e+08 M⁻¹, the MIC ([1]; Staphylococcus aureus (29213)) was 8 µg/mL (≈ 11.9 µM) and the MIC [2] was 16 µg/mL (≈ 23.8 µM). It also gave an MIC [3] of 8 µg/mL (≈ 11.9 µM), an MIC [4] of 4 µg/mL (≈ 5.95 µM) and an MIC [5] of 8 µg/mL (≈ 11.9 µM). The MIC [6] was 2 µg/mL (≈ 2.98 µM), the MIC [23] was 4 µg/mL (≈ 5.95 µM) and the MIC [7] was 2 µg/mL (≈ 2.98 µM). For the same compound, the MIC ([9]; Bacillus subtilis (6633)) was 4 µg/mL (≈ 5.95 µM), the MIC ([10]; Bacillus cereus (11778)) was 4 µg/mL (≈ 5.95 µM) and the MIC [11] was 8 µg/mL (≈ 11.9 µM). For the same compound, the MIC ([12]; Corynebacterium Group A (49676)) was 1 µg/mL (≈ 1.49 µM), the MIC [13] was 8 µg/mL (≈ 11.9 µM) and the MIC ([14]; Clostridium perfringens (13124), anaerobe) was 2 µg/mL (≈ 2.98 µM). For the same compound, the MIC [15] was 0.5 µg/mL (≈ 0.744 µM), the MIC [17] was over 128 µg/mL and the MIC ([18]; Pseudomona aeruginosa (27853)) was over 128 µg/mL. It also gave an MIC [24] of 8 µg/mL (≈ 11.9 µM).
For `Cn1cc(NC(=O)c2cc(NC(=O)c3cc(NC(=O)c4nsc(Cl)c4Cl)cn3C)cn2C)cc1C(=O)NCCC(=N)N` [V-ee], the MIC ([1]; Staphylococcus aureus (29213)) was 0.25, μg/mL and 0.125 μg/mL, the MIC ([10]; Bacillus cereus (11778)) was 0.25 µg/mL (≈ 0.395 µM) and the MIC [17] was 64, μg/mL and 32 μg/mL. The MIC [25] was 2 µg/mL (≈ 3.16 µM).
In the case of `Cn1cc(NC(=O)c2cc(NC(=O)c3cc(NC(=O)c4nsc(NCCCNC5CCCCC5)c4Cl)cn3C)cn2C)cc1C(=O)NCCCNC1CCCCC1` [V-ff], the MIC ([1]; Staphylococcus aureus (29213)) is reported as 1 µg/mL (≈ 1.22 µM), the MIC ([10]; Bacillus cereus (11778)) is reported as 2 µg/mL (≈ 2.43 µM) and the MIC [17] is reported as 32 µg/mL (≈ 38.9 µM). The MIC [25] was 16 µg/mL (≈ 19.5 µM).
For `Cn1cc(NC(=O)c2cc(NC(=O)c3cc(NC(=O)c4nsc(NCCN5CCOCC5)c4Cl)cn3C)cn2C)cc1C(=O)NCCN1CCOCC1` [V-gg], the MIC ([1]; Staphylococcus aureus (29213)) was 2, μg/mL and 1 μg/mL, the MIC [17] was 32 µg/mL (≈ 41.5 µM) and the MIC [25] was 32 µg/mL (≈ 41.5 µM).
`Cn1cc(NC(=O)c2cc(NC(=O)c3cc(NC(=O)c4nsc(N5CCCCC5)c4Cl)cn3C)cn2C)cc1C(=O)NCCN1CCOCC1` [V-hh] gave an MIC ([1]; Staphylococcus aureus (29213)) of 1 µg/mL (≈ 1.38 µM), an MIC ([10]; Bacillus cereus (11778)) of 1 µg/mL (≈ 1.38 µM) and an MIC [17] of 32 µg/mL (≈ 44.1 µM). It also gave an MIC [25] of 32 µg/mL (≈ 44.1 µM).
`COc1snc(C(=O)Nc2cc(C(=O)Nc3cc(C(=O)Nc4cc(C(=O)NCCC(=N)N)n(C)c4)n(C)c3)n(C)c2)c1Cl` [V-jj] showed an MIC ([1]; Staphylococcus aureus (29213)) of 0.5 µg/mL (≈ 0.795 µM), an MIC ([10]; Bacillus cereus (11778)) of 0.25 µg/mL (≈ 0.397 µM) and an MIC [17] of 32 µg/mL (≈ 50.9 µM). The MIC [25] was 1 µg/mL (≈ 1.59 µM).
`Cn1cc(NC(=O)c2cc(NC(=O)c3cc(NC(=O)c4nsc(Cl)c4Cl)cn3C)cn2C)cc1C(=O)NCCN1CCOCC1` [V-mm] was tested, and the MIC ([1]; Staphylococcus aureus (29213)) was 0.5 µg/mL (≈ 0.739 µM), the MIC ([10]; Bacillus cereus (11778)) was 0.25 µg/mL (≈ 0.37 µM) and the MIC [17] was 32 µg/mL (≈ 47.3 µM). The MIC [25] was 32 µg/mL (≈ 47.3 µM).
`CN=C(CCNC(=O)c1cc(NC(=O)c2cc(NC(=O)c3cc(NC(=O)c4nsc(Cl)c4Cl)cn3C)cn2C)cn1C)NC` [V-nn] gave an MIC ([1]; Staphylococcus aureus (29213)) of 0.031 µg/mL (≈ 0.0469 µM), an MIC ([10]; Bacillus cereus (11778)) of 0.064 µg/mL (≈ 0.0967 µM) and an MIC [17] of 32 µg/mL (≈ 48.4 µM). It also gave an MIC [25] of 1 µg/mL (≈ 1.51 µM).
In the case of `COc1snc(C(=O)Nc2cc(C(=O)Nc3cc(C(=O)Nc4cc(C(=O)NCCNC(=N)N)n(C)c4)n(C)c3)n(C)c2)c1Cl` [V-oo], the MIC ([1]; Staphylococcus aureus (29213)) is reported as 0.25 µg/mL (≈ 0.388 µM), the MIC ([10]; Bacillus cereus (11778)) is reported as 0.5 µg/mL (≈ 0.776 µM) and the MIC [17] is reported as 32 µg/mL (≈ 49.7 µM). For the same compound, the MIC [25] was 1 µg/mL (≈ 1.55 µM).
